Experimental findings from a melting point compilation (Tetko et al.; mined from patent text by program, amines drawn as free bases though some values may be those of a salt) are described below.

With `COC(=O)C(=O)c1ccc(OCCCCOc2ccc3ccccc3c2)cc1`, the melting point fell in the range of 93 to 95 °C. The compound `CC1(C)CN(CCO)C(=O)C(C)(C)N1` gave a melting point of 91 to 93 °C. Next, `CC(C)c1cccc2c1O[C@@H](C(C)C)C(=S)N2CC(=O)O`: 109 to 110 °C. Regarding `CNC(=O)Nc1cc(C(C)(C)C)on1`, the melting point lay in the range of 187 to 188 °C.

`O=C(c1ccc(Cl)cc1)c1c(N2C(=O)c3ccccc3C2=O)sc(Br)c1CBr`: the melting point is 173 to 175 °C.

In turn, `CC(=O)OC1CCC2(C)C(CCC3C2CCC2(C)C(C(=O)C=[N+]=[N-])CCC32)C1` (configuration not stated) displayed a melting point of 135 to 136 °C. The compound `C=C1C=C(Oc2cc(C(=O)Nc3c(Cl)cncc3Cl)ccc2OC)C1(F)F` displayed a melting point of 102 to 104 °C. Under `Nc1c2c(nn1-c1ccc(Cl)cc1)CCCC2` stands 140 to 142 °C; under `NC(=O)c1cc(COc2ccc([N+](=O)[O-])cc2)ccn1`, 172 to 174 °C. Turning to `CC(C)c1ccc(-n2nnc(-c3ccc(O)cc3)n2)cc1`, the melting point was in the range of 158 to 160 °C. The compound `CNc1nc(C)c(C(=O)c2ccc(N)c(N)c2)s1` returned a melting point of 115 to 125 °C. `CCCCCCCCCC(=O)Oc1ccc([N+](=O)[O-])cc1OC(=O)CCCCCCCCC`: the melting point was 45 to 47 °C. `O=c1c(-c2ccccc2)c[nH]n1-c1ncccn1` displayed a melting point of 159 to 160 °C.

The compound `CNc1nc(-c2ccc(Cl)cc2)c(CCC(=O)O)o1` displayed a melting point of 217 to 218 °C. In the case of `Cc1coc(NC(=O)C2c3ccccc3Oc3ccccc32)n1`, the melting point fell in the range of 219 to 222 °C.

Regarding `CC(c1oc2ccccc2c(=O)c1-c1cccc(F)c1)n1nc(-c2ccc(Oc3ccccc3)cc2)c2c(N)ncnc21` (configuration not stated), the melting point was 218 to 220 °C.

The compound `O=C(c1c(F)cccc1F)N1COCN(c2ccc(S(=O)(=O)C(F)F)cc2F)C1=O` returned a melting point of 210 to 213 °C. Under `COc1cc(O)c(C(=O)c2ccccc2F)c(Cl)c1` stands 85 to 90 °C. With `COC(=O)[C@H](Cc1ccc(-c2ccccc2)cc1)NC(=O)OC(C)(C)C`, the melting point was 83 to 85 °C. As for `CC1(C)CC(=O)C(c2c[nH]c3ccccc23)C(=O)C1`, the melting point is 173 °C.

`COc1c(Cl)cc(C(=O)O)c2cccc(S(=O)(=O)N(C)C)c12`: the melting point fell in the range of 127 to 137 °C. For the compound `CSCCCc1cc(F)c2ncc(C(=O)NCc3ccc(Cl)cc3)c(O)c2c1`, the melting point was 178 to 180 °C. Take `CCOC(=O)C1CCN(C(=O)CCCOc2ccc3nc4[nH]c(=O)[nH]c4cc3c2)CC1`: the melting point lay in the range of 251 to 253 °C. In turn, `COc1ccc(-c2sc3cc(OC)ccc3c2C#N)cc1` returned a melting point of 142 to 143 °C. In turn, `COc1ccc(Cl)cc1-c1c(N)c(=O)[nH]c2ccccc12` returned a melting point of 248 to 250 °C.

`O=CC(=O)c1ccc(Oc2cccc(C(F)(F)F)c2)cc1` gave a melting point of 73 to 80 °C. Compound `Cn1c(C(F)(F)F)nn(-c2ccccc2[N+](=O)[O-])c1=O` had a melting point of 83 °C. `CCOc1cc2c(c3c1OC(C)(C)C3)C(c1cccc(NC(=O)CSC)c1)=NC(C)(C)C2`: the melting point is 162 to 163 °C. On to `CCOC(=O)CN1C(=O)C(NC(=O)OCc2ccccc2)N=C(c2ccccc2)c2ccccc21` (configuration not stated), for which the melting point lay in the range of 65 to 66 °C.

Turning to `CCC(O)C1CCNCC1` (configuration not stated), the melting point was 50 °C.

The compound `O=[N+]([O-])c1cccnc1NCC(O)c1ccccc1` (configuration not stated) returned a melting point of 101 to 103 °C. Under `CC(=O)CCc1ccc(C(=O)Nc2ccc3cc(CN4CCCC4)cnc3c2C)cc1` stands 106 to 108 °C; under `CCCS(=O)(=O)Cc1cc2oc(S(N)(=O)=O)cc2cn1`, 167 to 169 °C; under `COc1cc2c(Nc3ccc(Cl)cc3F)ncnc2cc1OCCn1ccccc1=O`, 209 to 211 °C. `O=C1OCCC1C(=O)c1ccccc1[N+](=O)[O-]` (configuration not stated) gave a melting point of 75 to 76 °C. Consider `O=C(Nc1ccc2[nH]ncc2c1)c1ccccc1NCC1CCOCC1`, for which the melting point worked out at 174 °C. `Cc1ccc(C(F)(F)c2ccc(C3CCCN4CCS(=O)(=O)N=C34)cc2)cc1` (configuration not stated) returned a melting point of 190 to 191 °C. The compound `Cc1cc2ccc(Cl)cc2[nH]1` had a melting point of 120 to 122 °C. In the case of `COc1ccc(C(=O)Nc2ccc(C(C)(C)CNC(=O)c3nn(C)cc3Br)cc2)cc1OC`, the melting point is 112 to 113 °C.

On to `O=C(CCc1ccccc1)Nc1cc(-c2nnc(SCc3cccc(C(F)(F)F)c3)o2)ccn1`, for which the melting point lay within 159 to 160 °C.

`Oc1cccc(C=Cc2ccc3ccccc3n2)c1` gave a melting point of 210 to 212 °C. `Cc1ccccc1-c1cccc(F)c1C(=O)NCCCl` returned a melting point of 78 to 81 °C. As to `O=S(=O)(C1CC1)N1CCC(Nc2nccc(-c3c(-c4ccc(F)c(O)c4)nc4sccn34)n2)CC1`, the melting point fell in the range of 224 to 225 °C. Consider `COc1cc(OC)c2c(=O)[nH]c(-c3ccc(OCCN4CCCC4)c(C)c3)nc2c1`, for which the melting point lay in the range of 230 to 231 °C.

Consider `C=C(Cc1ccccc1)C(=O)NN1CCN(C(=O)OC(C)(C)C)CC1`, for which the melting point was 160 °C. Regarding `CCOc1noc2c1CN(C(=O)OC)CCC2`, the melting point lay in the range of 51.5 to 52 °C. Consider `CCOC(=O)c1c(CCCCc2nccn2C)nc2cc(OC)c(OC)cc2c1-c1ccc(OC)c(OC)c1`, for which the melting point lay within 180 to 183 °C. `COc1cccc(C(O)c2cc(Cl)ccc2N(CC(N)=O)S(=O)(=O)c2ccc(OC)c(OC)c2)c1` (configuration not stated) showed a melting point of 100 °C. `COC(=O)c1cccc(OCCC(C#N)NC(=O)C(Cc2cccc(C)c2)NC(=O)C(c2ccccc2)c2ccccc2)c1` (configuration not stated) registered a melting point of 152 to 153 °C. The compound `OCc1c2c(nn1-c1ccc(F)cc1)CCCCC2` gave a melting point of 177 to 178 °C. In turn, `CCOC(=O)CC(NC(=O)c1ccccc1)C(=O)c1ccco1` (configuration not stated) came in with a melting point of 75 to 76 °C.

Compound `N#Cc1sc(C#N)c(Br)c1Br` showed a melting point of 138 to 139 °C. For the compound `NC(=O)C(Nc1ccccc1[N+](=O)[O-])c1c(Cl)cccc1Cl` (configuration not stated), the melting point stood at 182 °C. `CC(C)c1ccc(S(=O)(=O)n2c(Cc3ccc(C(=O)O)c(F)c3)cc3cc(Cl)ccc32)cc1` had a melting point of 196 °C. `Cc1c(F)c(N2CCC(N)C2)nc2c1c(=O)c(C(=O)O)cn2-c1ccc(F)cc1F` (configuration not stated) yielded a melting point of 260 °C.

`CS(=O)(=O)c1ccc(-c2c(-c3ccc(F)cc3)c(OCc3c(F)cccc3Cl)nn2Cc2c(F)cccc2Cl)cc1` returned a melting point of 195 to 196 °C. Next, `O=C(NCCSCc1cccc(Cl)c1)c1c(F)cccc1F`: 41 to 43 °C; `O=S(=O)(NCCSC1c2ccccc2COc2ccc(/C=C/c3ccc4cc(F)c(F)cc4n3)cc21)C(F)(F)F` (configuration not stated): 84 to 87 °C; `CCCCCNS(=O)(=O)NC(=O)/C(C)=C/c1ccc(OC(C)C)cc1Oc1ncc(C(F)(F)F)cc1Cl`: 138 °C. For the compound `CC(C)(C)OC(=O)N1CCC2(Cc3ccc(C#N)cc3)C(=O)N(c3cc(Cl)nc(Cl)c3)C(=O)N12` (configuration not stated), the melting point stood at 179 °C. Under `CCS(=O)(=O)Nc1cc(-n2nc3n(c2=O)CCS3)c(F)cc1C#N` stands 209 to 211 °C; under `Cc1ccc2c(=O)cc(C(N)=O)oc2c1`, greater than 300 °C.
